The values below come from ChEMBL document CHEMBL5214960 (J Med Chem, 2022).

Values after ≈ are worked out from the molar mass of the structure shown.

In series [1] the target is Tyrosine-protein phosphatase non-receptor type 6 (Homo sapiens, UniProt P29350). In words: Inhibition of SHP1 (unknown origin).
Series [2] in a line: Unbound Cmax in plasma of CD-1 mouse at 10 mg/kg, po measured after 8 hrs by LC-MS/MS analysis. The note with it: in vivo. The format is ADME, organism-based.
The nature of series [3]: Oral bioavailability in CD-1 mouse plasma at 10 mg/kg measured after 8 hrs by LC-MS/MS analysis. It counts as ADME, organism-based. The note with it: mouse, in vivo, po, 10 mg/kg, 8 h.
The nature of series [4]: Inhibition of PTP-Meg2 (unknown origin). Details: species or system Homo sapiens.
In series [5] the target is CYP3A4 (Homo sapiens, UniProt P08684). Description: Inhibition of human hepatic CYP3A4 using midazolam as substrate measured after 3 mins by LC-MS analysis relative to control. The note with it: human hepatic CYP3A4 (liver), probe midazolam. The arrangement: concentration or dose not given beside the values. It counts as ADME, tissue-based.
CYP3A4, sequence (P08684 whole entry): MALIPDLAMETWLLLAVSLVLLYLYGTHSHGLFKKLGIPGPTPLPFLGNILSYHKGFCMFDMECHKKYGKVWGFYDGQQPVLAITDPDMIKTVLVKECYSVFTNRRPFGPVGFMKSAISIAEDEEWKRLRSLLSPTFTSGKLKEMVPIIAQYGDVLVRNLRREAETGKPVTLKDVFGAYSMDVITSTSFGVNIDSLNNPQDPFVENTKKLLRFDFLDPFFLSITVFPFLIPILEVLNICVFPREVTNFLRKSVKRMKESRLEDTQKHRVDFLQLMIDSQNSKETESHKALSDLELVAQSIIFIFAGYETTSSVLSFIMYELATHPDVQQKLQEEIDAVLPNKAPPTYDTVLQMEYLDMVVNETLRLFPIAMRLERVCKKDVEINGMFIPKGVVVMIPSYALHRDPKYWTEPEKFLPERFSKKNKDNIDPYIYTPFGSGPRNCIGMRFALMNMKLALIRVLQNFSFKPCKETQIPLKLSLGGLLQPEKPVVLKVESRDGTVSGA
Series [6] addresses T1, Low molecular weight phosphotyrosine protein phosphatase (Homo sapiens, UniProt P24666).
T1 sequence (P24666 whole entry): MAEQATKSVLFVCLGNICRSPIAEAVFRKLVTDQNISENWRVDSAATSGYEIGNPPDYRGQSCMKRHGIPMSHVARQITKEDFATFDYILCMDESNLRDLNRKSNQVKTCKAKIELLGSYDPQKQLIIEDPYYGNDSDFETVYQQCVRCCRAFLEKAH
In words: Inhibition of His-tagged human LMW-PTP expressed in Escherichia coli BL21 using pNPP as substrate incubated for 10 mins by microplate reader based spectrophotometric analysis.

Series [7] is described as follows: Metabolic stability in mouse hepatic microsome at 4 uM measured after 30 mins by LC-MS analysis. The note with it: liver microsomes, read-out: Stability. It counts as ADME. In general terms: Microsomes from liver hold many membrane-bound enzymes, among them those of drug oxidation.
Series [8] concerns the target Tyrosine-protein phosphatase non-receptor type 3 (Homo sapiens, UniProt P26045). Description: Inhibition of PTPH1 (unknown origin).
Series [9] is described as follows: Unbound Cmax in plasma of Sprague-Dawley rat at 30 mg/kg, po measured after 24 hrs by LC-MS/MS analysis. The format is ADME, organism-based. The conditions noted are these: in vivo.
A short description of series [10]: Unbound Cmax in plasma of CD-1 mouse at 2 mg/kg, iv measured after 8 hrs by LC-MS/MS analysis. It counts as ADME, organism-based. The note with it: in vivo.
The nature of series [11]: Cmax in Sprague-Dawley rat plasma at 3 mg/kg, po measured after 24 hrs by LC-MS/MS analysis. The arrangement: time 24 hrs, dose 3 mg/kg, route po. The format is ADME, organism-based. The note with it: in vivo.
Series [12] addresses Receptor-type tyrosine-protein phosphatase mu (Homo sapiens, UniProt P28827). In words: Inhibition of PTPmu (unknown origin).
The nature of series [13]: Cmax in CD-1 mouse plasma at 2 mg/kg, iv measured after 8 hrs by LC-MS/MS analysis. The format is ADME, organism-based. Details: time 8 hrs, dose 2 mg/kg, route iv.
Series [14] can be described thus: Cmax in Sprague-Dawley rat plasma at 30 mg/kg, po measured after 24 hrs by LC-MS/MS analysis. It counts as ADME, organism-based. The arrangement: time 24 hrs, dose 30 mg/kg, route po. The conditions noted are these: in vivo.
A short description of series [15]: Volume of distribution at steady state in CD-1 mouse plasma at 2 mg/kg, iv measured after 8 hrs by LC-MS/MS analysis. It counts as ADME, organism-based. The note with it: in vivo.
Series [16] in a line: Aqueous solubility of compound at pH 6 by HPLC analysis. The format is physicochemical. The note with it: buffer.
For series [17], the target named is Dual specificity protein phosphatase 6 (Homo sapiens, UniProt Q16828). In words: Inhibition of MKP3 (unknown origin).
Dual specificity protein phosphatase 6, sequence (Q16828 whole entry): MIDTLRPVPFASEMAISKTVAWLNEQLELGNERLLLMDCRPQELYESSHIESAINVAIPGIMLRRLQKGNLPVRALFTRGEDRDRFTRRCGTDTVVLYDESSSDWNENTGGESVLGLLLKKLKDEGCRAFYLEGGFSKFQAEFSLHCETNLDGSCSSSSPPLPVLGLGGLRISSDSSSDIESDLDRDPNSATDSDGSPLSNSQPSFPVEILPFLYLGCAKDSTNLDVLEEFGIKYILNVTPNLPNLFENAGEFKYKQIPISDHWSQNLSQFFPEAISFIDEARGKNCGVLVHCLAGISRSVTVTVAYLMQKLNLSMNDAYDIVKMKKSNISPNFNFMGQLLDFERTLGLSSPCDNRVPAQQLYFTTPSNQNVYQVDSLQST

Receptor-type tyrosine-protein phosphatase mu, sequence (P28827 whole entry): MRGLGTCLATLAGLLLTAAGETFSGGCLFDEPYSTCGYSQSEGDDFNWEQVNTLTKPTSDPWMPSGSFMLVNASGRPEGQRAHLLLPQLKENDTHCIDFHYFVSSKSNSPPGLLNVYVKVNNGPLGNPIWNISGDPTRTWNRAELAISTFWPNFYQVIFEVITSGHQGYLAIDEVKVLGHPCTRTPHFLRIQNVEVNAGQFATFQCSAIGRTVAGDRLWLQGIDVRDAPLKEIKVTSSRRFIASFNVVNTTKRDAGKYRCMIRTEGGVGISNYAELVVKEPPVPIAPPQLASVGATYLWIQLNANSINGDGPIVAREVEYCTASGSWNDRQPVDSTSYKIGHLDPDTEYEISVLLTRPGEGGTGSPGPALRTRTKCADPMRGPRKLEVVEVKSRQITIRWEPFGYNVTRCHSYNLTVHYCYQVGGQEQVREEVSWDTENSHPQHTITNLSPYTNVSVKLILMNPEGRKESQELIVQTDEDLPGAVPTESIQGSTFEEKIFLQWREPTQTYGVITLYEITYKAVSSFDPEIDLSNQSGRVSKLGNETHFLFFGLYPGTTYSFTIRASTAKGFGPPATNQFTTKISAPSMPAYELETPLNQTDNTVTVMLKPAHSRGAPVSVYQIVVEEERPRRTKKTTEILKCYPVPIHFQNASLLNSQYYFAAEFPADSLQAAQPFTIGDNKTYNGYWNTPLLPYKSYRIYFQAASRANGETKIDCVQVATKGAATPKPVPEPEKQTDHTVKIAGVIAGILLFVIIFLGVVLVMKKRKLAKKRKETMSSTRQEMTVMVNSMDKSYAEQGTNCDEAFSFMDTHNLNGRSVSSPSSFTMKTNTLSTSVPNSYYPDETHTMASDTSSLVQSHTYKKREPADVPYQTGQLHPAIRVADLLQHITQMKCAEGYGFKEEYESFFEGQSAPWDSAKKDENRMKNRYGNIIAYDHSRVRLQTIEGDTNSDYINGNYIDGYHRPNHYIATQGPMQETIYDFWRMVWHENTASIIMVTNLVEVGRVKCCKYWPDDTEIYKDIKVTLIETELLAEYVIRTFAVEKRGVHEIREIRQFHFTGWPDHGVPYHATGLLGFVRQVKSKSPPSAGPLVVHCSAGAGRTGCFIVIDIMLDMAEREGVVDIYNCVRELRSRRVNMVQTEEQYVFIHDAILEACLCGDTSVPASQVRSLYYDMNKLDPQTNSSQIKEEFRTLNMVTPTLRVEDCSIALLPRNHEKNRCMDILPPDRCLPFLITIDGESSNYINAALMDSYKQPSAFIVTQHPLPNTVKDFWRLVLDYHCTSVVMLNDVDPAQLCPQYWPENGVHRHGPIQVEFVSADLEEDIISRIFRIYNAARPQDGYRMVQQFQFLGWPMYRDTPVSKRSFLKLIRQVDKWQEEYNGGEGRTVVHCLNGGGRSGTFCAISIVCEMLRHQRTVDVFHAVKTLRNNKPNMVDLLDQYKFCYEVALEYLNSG
Tyrosine-protein phosphatase non-receptor type 3, sequence (P26045 whole entry): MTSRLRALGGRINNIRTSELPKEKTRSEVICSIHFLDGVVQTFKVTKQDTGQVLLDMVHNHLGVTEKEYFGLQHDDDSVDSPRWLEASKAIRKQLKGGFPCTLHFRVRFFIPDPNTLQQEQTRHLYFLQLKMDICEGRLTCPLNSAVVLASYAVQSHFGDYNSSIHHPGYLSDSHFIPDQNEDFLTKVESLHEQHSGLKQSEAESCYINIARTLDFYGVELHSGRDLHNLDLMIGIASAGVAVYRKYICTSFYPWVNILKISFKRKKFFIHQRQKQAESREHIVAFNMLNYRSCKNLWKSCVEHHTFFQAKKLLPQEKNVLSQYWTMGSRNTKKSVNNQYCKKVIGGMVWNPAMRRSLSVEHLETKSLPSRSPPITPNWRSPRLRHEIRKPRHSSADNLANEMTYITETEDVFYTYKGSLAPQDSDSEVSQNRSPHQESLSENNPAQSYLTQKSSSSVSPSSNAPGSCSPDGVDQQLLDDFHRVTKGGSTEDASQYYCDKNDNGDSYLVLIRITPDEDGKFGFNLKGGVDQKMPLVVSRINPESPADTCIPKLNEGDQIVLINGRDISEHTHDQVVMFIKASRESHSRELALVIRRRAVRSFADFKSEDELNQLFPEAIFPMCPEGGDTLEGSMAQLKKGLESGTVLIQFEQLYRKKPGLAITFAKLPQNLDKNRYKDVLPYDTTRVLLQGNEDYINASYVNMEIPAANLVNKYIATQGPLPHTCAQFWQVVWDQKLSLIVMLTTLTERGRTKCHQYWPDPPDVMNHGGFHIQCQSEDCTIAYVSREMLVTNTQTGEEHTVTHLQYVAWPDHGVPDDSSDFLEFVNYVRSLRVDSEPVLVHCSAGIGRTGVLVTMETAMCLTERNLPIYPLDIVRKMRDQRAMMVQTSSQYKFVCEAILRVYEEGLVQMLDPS
Tyrosine-protein phosphatase non-receptor type 6, sequence (P29350 whole entry): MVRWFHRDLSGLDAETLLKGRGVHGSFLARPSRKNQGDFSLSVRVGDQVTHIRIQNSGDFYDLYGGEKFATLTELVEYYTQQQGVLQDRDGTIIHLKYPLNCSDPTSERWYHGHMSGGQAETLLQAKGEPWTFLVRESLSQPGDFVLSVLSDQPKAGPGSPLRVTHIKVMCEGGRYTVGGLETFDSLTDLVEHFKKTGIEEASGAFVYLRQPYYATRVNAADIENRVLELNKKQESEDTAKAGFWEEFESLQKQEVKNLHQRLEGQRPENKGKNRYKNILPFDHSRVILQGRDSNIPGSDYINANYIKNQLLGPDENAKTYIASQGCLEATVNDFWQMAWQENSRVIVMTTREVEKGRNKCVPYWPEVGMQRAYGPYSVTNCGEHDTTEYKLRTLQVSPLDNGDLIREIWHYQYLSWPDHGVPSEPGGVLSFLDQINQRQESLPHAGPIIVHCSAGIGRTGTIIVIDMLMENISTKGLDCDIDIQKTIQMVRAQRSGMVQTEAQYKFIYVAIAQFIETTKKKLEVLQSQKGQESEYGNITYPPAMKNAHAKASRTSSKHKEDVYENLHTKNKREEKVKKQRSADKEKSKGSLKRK

Regarding `Cc1c(Br)cc(NC(=O)NS(=O)(=O)O)cc1Br`, the IC50 (as a rule, the point on the concentration scale where inhibition reaches its midpoint) in series [1] is greater than 10 µM; in series [4] it was greater than 10 µM; in [6] it was 0.004 µM; in series [8], greater than 10 µM; in [12], greater than 10 µM; in series [17], greater than 10 µM. For the same compound, the fCmax in series [2] was 233 nM; in series [9], 158 nM; in series [10] it was 322 nM. In addition, the F in series [3] is given as 34%. The inhibition (usually how much of the control response was suppressed) at 0.05 h in series [5] was determined as 0%. The remaining at 0.5 h, 4 µM in series [7] is 30%. In addition, the Cmax (usually the highest concentration seen after dosing) in series [11] turned out to be 0.877 µM; in series [13], 13.4 µM; in series [14], 6.59 µM. Besides, the Vdss (as a rule, the apparent volume that relates the amount in the body to the concentration in plasma or blood) in series [15] was 0.42 L/kg. Also, in series [16], the solubility – broadly, the concentration that dissolves in the medium under given conditions – turned out to be 9.5 µg/mL (≈ 24.5 µM).
